What was measured:
full-length human BTK = full-length human BTK (Homo sapiens (Human), UniProt Q06187); assay: BTK IC50 Enzyme Assay (microfluidic off-chip mobility shift kinase assay); format: biochemical; details: Btk Enzymatic IC50 Assay, 90 min at 27 C;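 also: Read-out separates phosphorylated peptide product from substrate by their charge-to-mass difference, with IC50 fitted from log inhibitor concentration against percent enzyme activity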
Btk = Btk (Homo sapiens (Human), UniProt Q06187); assay: Btk PBMC IC50 Cell Assay (anti-IgM-induced CD69 expression on B cells); format: cell-based; details: anti-IgM-induced CD69 expression on CD19 positive cells in human PBMCs;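 also: freshly isolated human PBMCs, IC50 from concentration-response of the share of CD19+ cells expressing CD69 after anti-IgM BCR stimulation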
Chain of Btk (Q06187 whole entry): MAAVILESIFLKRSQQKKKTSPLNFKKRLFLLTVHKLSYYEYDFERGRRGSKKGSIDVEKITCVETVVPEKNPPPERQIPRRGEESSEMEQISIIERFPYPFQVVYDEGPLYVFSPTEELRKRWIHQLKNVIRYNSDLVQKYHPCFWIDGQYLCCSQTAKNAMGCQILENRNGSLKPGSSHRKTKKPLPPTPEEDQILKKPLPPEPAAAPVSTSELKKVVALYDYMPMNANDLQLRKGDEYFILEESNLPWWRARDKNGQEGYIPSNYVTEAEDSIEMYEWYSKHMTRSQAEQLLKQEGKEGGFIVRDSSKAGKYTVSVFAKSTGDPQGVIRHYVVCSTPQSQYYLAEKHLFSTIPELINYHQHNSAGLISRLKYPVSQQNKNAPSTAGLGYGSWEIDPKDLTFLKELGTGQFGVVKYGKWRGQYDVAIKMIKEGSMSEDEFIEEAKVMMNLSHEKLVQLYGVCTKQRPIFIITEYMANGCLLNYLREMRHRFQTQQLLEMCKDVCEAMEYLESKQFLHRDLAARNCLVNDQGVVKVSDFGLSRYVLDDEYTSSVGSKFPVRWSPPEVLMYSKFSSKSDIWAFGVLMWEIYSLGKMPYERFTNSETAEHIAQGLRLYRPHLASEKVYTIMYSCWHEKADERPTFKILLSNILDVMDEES

Chain of full-length human BTK (Q06187 whole entry): as above

Row | SMILES | IC50 (full-length human BTK) | IC50 (Btk)
1 | Cn1cc(-c2nc3c(-c4ccc5c(c4)CCCC[C@@H]5NC(=O)c4noc(C5(C)CC5)n4)ccnc3[nH]2)cn1 [Compound 55, 5-(1-Methyl-cyclopropyl)-[1,2,4]oxadiazole-3-carboxylic acid {(S)-2-[2-(1-methyl-1H-pyrazol-4-yl)-3H-imidazo[4,5-b]pyridin-7-yl]-6,7,8,9-tetrahydro-5H-benzocyclohepten-5-yl}-amide] | 1 to 10 nM | 10 to 100 nM
2 | Cc1cc(-c2nc3c(-c4ccc5c(c4)CCCCC5NC(=O)c4nc(C(C)(C)C)no4)ccnc3[nH]2)nn1C (centres unmarked) [Compound 110, 3-tert-Butyl-[1,2,4]oxadiazole-5-carboxylic acid {2-[2-(1,5-dimethyl-1H-pyrazol-3-yl)-3H-imidazo[4,5-b]pyridin-7-yl]-6,7,8,9-tetrahydro-5H-benzocyclohepten-5-yl}-amide] | < 1 nM | 1 to 10 nM
3 | Cn1cc(-c2nc3c(-c4ccc5c(c4)CCCCC5NC(=O)N4CC(OC(C)(C)C)C4)ccnc3[nH]2)cn1 (centres unmarked) [Compound 43, 3-tert-Butoxy-azetidine-1-carboxylic acid {2-[2-(1-methyl-1H-pyrazol-4-yl)-3H-imidazo[4,5-b]pyridin-7-yl]-6,7,8,9-tetrahydro-5H-benzocyclohepten-5-yl}-amide] | < 1 nM | 1 to 10 nM
4 | Cc1nn(C)c(C)c1-c1nc2c(-c3ccc4c(c3)OCCC[C@@H]4NC(=O)c3nnc(C(C)(C)C)o3)ccnc2[nH]1 [Compound 19, 5-tert-Butyl-[1,3,4]oxadiazole-2-carboxylic acid {(S)-8-[2-(1,3,5-trimethyl-1H-pyrazol-4-yl)-3H-imidazo[4,5-b]pyridin-7-yl]-2,3,4,5-tetrahydro-benzo[b]oxepin-5-yl}-amide] | < 1 nM | 1 to 10 nM
5 | Cc1c(-c2nc3c(-c4ccc5c(c4)CCCC5NC(=O)N4CC(OC(C)(C)C)C4)ccnc3[nH]2)cnn1C1CCOCC1 (centres unmarked) [Compound 147, 3-tert-Butoxy-azetidine-1-carboxylic acid (6-{2-[5-methyl-1-(tetrahydro-pyran-4-yl)-1H-pyrazol-4-yl]-3H-imidazo[4,5-b]pyridin-7-yl}-1,2,3,4-tetrahydro-naphthalen-1-yl)-amide] | < 1 nM | 1 to 10 nM
6 | Cn1cc(-c2nc3c(-c4ccc5c(c4)CCCCC5NC(=O)c4noc(C(C)(C)C)n4)ccnc3[nH]2)cn1 (centres unmarked) [Compound 39, 5-tert-Butyl-[1,2,4]oxadiazole-3-carboxylic acid {2-[2-(1-methyl-1H-pyrazol-4-yl)-3H-imidazo[4,5-b]pyridin-7-yl]-6,7,8,9-tetrahydro-5H-benzocyclohepten-5-yl}-amide] | < 1 nM | < 1 nM
7 | Cn1cc(-c2nc3c(-c4ccc5c(c4)CCCC[C@H]5NC(=O)c4noc(C5(C)CC5)n4)ccnc3[nH]2)cn1 [Compound 54, 5-(1-Methyl-cyclopropyl)-[1,2,4]oxadiazole-3-carboxylic acid {(R)-2-[2-(1-methyl-1H-pyrazol-4-yl)-3H-imidazo[4,5-b]pyridin-7-yl]-6,7,8,9-tetrahydro-5H-benzocyclohepten-5-yl}-amide] | < 1 nM | 1 to 10 nM
8 | Cc1nn(C)c(C)c1-c1nc2c(-c3ccc4c(c3)CCC[C@@H]4NC(=O)c3nc(C(C)(C)C)no3)ccnc2[nH]1 [Compound 73, 3-tert-butyl-N-[(1S)-6-[2-(1,3,5-trimethyl-1H-pyrazol-4-yl)-3H-imidazo[4,5-b]pyridin-7-yl]-1,2,3,4-tetrahydronaphthalen-1-yl]-1,2,4-oxadiazole-5-carboxamide] | 1 to 10 nM | 1 to 10 nM
9 | Cc1nn(C(C)C)c(C)c1-c1nc2c(-c3ccc4c(c3)CCCC[C@H]4NC(=O)c3nnc(C(C)(C)C)o3)ccnc2[nH]1 [Compound 87, 5-tert-butyl-N-[(5R)-2-{2-[3,5-dimethyl-1-(propan-2-yl)-1H-pyrazol-4-yl]-3H-imidazo[4,5-b]pyridin-7-yl}-6,7,8,9-tetrahydro-5H-benzo[7]annulen-5-yl]-1,3,4-oxadiazole-2-carboxamide] | < 1 nM | 1 to 10 nM
10 | Cc1nn(C(C)C)c(C)c1-c1nc2c(-c3ccc4c(c3)CCCCC4NC(=O)c3noc(C(C)(C)C)n3)ccnc2[nH]1 (centres unmarked) [Compound 29, 5-tert-Butyl-[1,2,4]oxadiazole-3-carboxylic acid {2-[2-(1-isopropyl-3,5-dimethyl-1H-pyrazol-4-yl)-3H-imidazo[4,5-b]pyridin-7-yl]-6,7,8,9-tetrahydro-5H-benzocyclohepten-5-yl}-amide] | < 1 nM | 1 to 10 nM
11 | Cc1nn(C(C)C)cc1-c1nc2c(-c3ccc4c(c3)CCCCC4NC(=O)c3nc(C(C)(C)C)no3)ccnc2[nH]1 (stereo in doubt) [Compound 64, 3-tert-Butyl-[1,2,4]oxadiazole-5-carboxylic acid {(R)-2-[2-(1-isopropyl-3-methyl-1H-pyrazol-4-yl)-3H-imidazo[4,5-b]pyridin-7-yl]-6,7,8,9-tetrahydro-5H-benzocyclohepten-5-yl}-amide] | 1 to 10 nM | 10 to 100 nM
12 | Cc1c(-c2nc3c(-c4ccc5c(c4)CCC[C@H]5NC(=O)c4noc(C5(C)CC5)n4)ccnc3[nH]2)cnn1C1CCOCC1 [Compound 162, 5-(1-Methyl-cyclopropyl)-[1,2,4]oxadiazole-3-carboxylic acid ((R)-6-{2-[5-methyl-1-(tetrahydro-pyran-4-yl)-1H-pyrazol-4-yl]-3H-imidazo[4,5-b]pyridin-7-yl}-1,2,3,4-tetrahydro-naphthalen-1-yl)-amide] | < 1 nM | 1 to 10 nM
13 | Cc1c(-c2nc3c(-c4ccc5c(c4)CCC[C@H]5NC(=O)c4nc(C5(C)CC5)no4)ccnc3[nH]2)cnn1C1CCOCC1 [Compound 154, 3-(1-Methyl-cyclopropyl)-[1,2,4]oxadiazole-5-carboxylic acid ((R)-6-{2-[5-methyl-1-(tetrahydro-pyran-4-yl)-1H-pyrazol-4-yl]-3H-imidazo[4,5-b]pyridin-7-yl}-1,2,3,4-tetrahydro-naphthalen-1-yl)-amide] | 1 to 10 nM | 10 to 100 nM
14 | CCn1nc(-c2nc3nccc(-c4ccc5c(c4)CCCCC5NC(=O)c4nc(C(C)(C)C)no4)c3[nH]2)cc1C (centres unmarked) [Compound 97, 3-tert-butyl-N-{2-[2-(1-ethyl-5-methyl-1H-pyrazol-3-yl)-3H-imidazo[4,5-b]pyridin-7-yl]-6,7,8,9-tetrahydro-5H-benzo[7]annulen-5-yl}-1,2,4-oxadiazole-5-carboxamide] | < 1 nM | –
15 | Cc1nn(C(C)C)c(C)c1-c1nc2c(-c3ccc4c(c3)CCCC[C@@H]4NC(=O)c3nnc(C(C)(C)C)o3)ccnc2[nH]1 [Compound 88, 5-tert-butyl-N-[(5S)-2-{2-[3,5-dimethyl-1-(propan-2-yl)-1H-pyrazol-4-yl]-3H-imidazo[4,5-b]pyridin-7-yl}-6,7,8,9-tetrahydro-5H-benzo[7]annulen-5-yl]-1,3,4-oxadiazole-2-carboxamide] | 1 to 10 nM | > 100 nM
16 | Cc1nn(C)c(C)c1-c1nc2nccc(-c3ccc4c(c3)CCCC[C@@H]4NC(=O)c3cc(C(C)(C)C)on3)c2[nH]1 [Compound 71, 5-tert-butyl-N-[(5S)-2-[2-(1,3,5-trimethyl-1H-pyrazol-4-yl)-1H-imidazo[4,5-b]pyridin-7-yl]-6,7,8,9-tetrahydro-5H-benzo[7]annulen-5-yl]-1,2-oxazole-3-carboxamide] | 1 to 10 nM | 10 to 100 nM
17 | Cc1nn(C)c(C)c1-c1nc2c(-c3ccc4c(c3)OCCCC4NC(=O)c3noc(C(C)(C)C)n3)ccnc2[nH]1 (centres unmarked) [Compound 14, 5-tert-Butyl-[1,2,4]oxadiazole-3-carboxylic acid {8-[2-(1,3,5-trimethyl-1H-pyrazol-4-yl)-3H-imidazo[4,5-b]pyridin-7-yl]-2,3,4,5-tetrahydro-benzo[b]oxepin-5-yl}-amide] | < 1 nM | 10 to 100 nM
18 | Cc1c(-c2nc3c(-c4ccc5c(c4)CCCCC5NC(=O)c4nnc(C(C)(C)C)o4)ccnc3[nH]2)cnn1C(C)C (centres unmarked) [Compound 84, 5-tert-butyl-N-(2-{2-[5-methyl-1-(propan-2-yl)-1H-pyrazol-4-yl]-3H-imidazo[4,5-b]pyridin-7-yl}-6,7,8,9-tetrahydro-5H-benzo[7]annulen-5-yl)-1,3,4-oxadiazole-2-carboxamide] | < 1 nM | 1 to 10 nM
19 | Cc1nn(C(C)C)cc1-c1nc2c(-c3ccc4c(c3)CCCCC4NC(=O)c3noc(C(C)(C)C)n3)ccnc2[nH]1 (centres unmarked) [Compound 58, 5-tert-Butyl-[1,2,4]oxadiazole-3-carboxylic acid {2-[2-(1-isopropyl-3-methyl-1H-pyrazol-4-yl)-3H-imidazo[4,5-b]pyridin-7-yl]-6,7,8,9-tetrahydro-5H-benzocyclohepten-5-yl}-amide] | < 1 nM | 1 to 10 nM
20 | CCn1ncc(-c2nc3c(-c4ccc5c(c4)CCCCC5NC(=O)c4nc(C(C)(C)C)no4)ccnc3[nH]2)c1C (centres unmarked) [Compound 85, 3-tert-butyl-N-{2-[2-(1-ethyl-5-methyl-1H-pyrazol-4-yl)-3H-imidazo[4,5-b]pyridin-7-yl]-6,7,8,9-tetrahydro-5H-benzo[7]annulen-5-yl}-1,2,4-oxadiazole-5-carboxamide] | < 1 nM | 1 to 10 nM
21 | CC(C)n1cc(-c2nc3c(-c4ccc5c(c4)CCCC[C@@H]5NC(=O)c4cc(C(C)(C)C)on4)ccnc3[nH]2)cn1 [Compound 93, 5-tert-butyl-N-[(5S)-2-{2-[1-(propan-2-yl)-1H-pyrazol-4-yl]-3H-imidazo[4,5-b]pyridin-7-yl}-6,7,8,9-tetrahydro-5H-benzo[7]annulen-5-yl]-1,2-oxazole-3-carboxamide] | 1 to 10 nM | –
22 | Cc1nn(C)c(C)c1-c1nc2c(-c3ccc4c(c3)CCCC[C@H]4NC(=O)c3noc(C(C)(C)C)n3)ccnc2[nH]1 [Compound 9, 5-tert-Butyl-[1,2,4]oxadiazole-3-carboxylic acid {(R)-2-[2-(1,3,5-trimethyl-1H-pyrazol-4-yl)-3H-imidazo[4,5-b]pyridin-7-yl]-6,7,8,9-tetrahydro-5H-benzocyclohepten-5-yl}-amide] | > 100 nM | –

Reference: patent US12415803B2, “Fused imidazopyridines as reversible inhibitors of Brutons Tyrosine Kinase (BTK)” (Merck Patent GmbH, priority 2018, dated 2025)
